# Measured values as given in patent US20160024052A1, “BENZIMIDAZOLE RETINOIC ACID RECEPTOR-RELATED ORPHAN RECEPTOR MODULATORS AND USES THEREOF” (INNOV17 LLC, priority 2014, published 2016).
# Key:
# Assay type in all cases: cell-based
# Conditions in all cases: 72 h; human CD4+ T cells under TH17-polarizing conditions, 3 days, supernatant ELISA, 0.1% DMSO
# IL-17A = assay: Human TH17 cytokine inhibition measured by ELISA: IL-17A
# Description: (§1) Human TH17 Cytokine Inhibition as Measured by ELISA
# (§2) Peripheral blood mononuclear cells (PBMCs) were sourced from freshly prepared leukocyte enriched plasma (buffy coat) from healthy donors (New York Blood Center). PBMCs were isolated by density gradient centrifugation using Ficoll-Paque™ PLUS (GE Healthcare). Human CD4+ T cells were seeded into 96-well plates (5×10^4 cells/well) and activated with plate-bound anti-human (h)-CD3 antibody and soluble h-aCD28 (both at lug/ml; eBioscience) and differentiated into TH17 cells with 20 ng/mL h-IL-6, 5 ng/mL h-TGF-β1, 10 ng/mL h-IL-23 (eBioscience) and 10 ng/mL IL-1β (Miltenyi Biotec) in serum-free TexMACS Medium (Miltenyi Biotec) supplemented with 1% Penicillin/Streptomycin (Lonza) for 3 days. CD4+ T cells propagated under TH17-polarizing conditions were cultured in the presence or absence of various concentrations of compounds with a final concentration of 0.1% DMSO. Supernatants were collected and stored at −20° C. until assayed for IL-17A, IL-17F and IL-21 levels by “Ready-Set-Go” ELISA kits (eBioscience) as per manufacturer's instructions. Endpoint absorbance was read at 450 nm using a microplate reader (Perkin Elmer).
# IL-17F = assay: Human TH17 cytokine inhibition measured by ELISA: IL-17F
# Description: as §1, §2
# IL-22 = assay: Human TH17 cytokine inhibition measured by ELISA: IL-22
# IL-21 = assay: Human TH17 cytokine inhibition measured by ELISA: IL-21
# Description: as §1, §2
Structure (SMILES),IC50 (IL-17A),IC50 (IL-17F),IC50 (IL-22),IC50 (IL-21)
"O=S(=O)(c1ccccc1)N1CCC(Cn2cnc3cc(-c4cn[nH]c4)ccc32)CC1 [Example 11, 1-((1-(phenylsulfonyl)piperidin-4-yl)methyl)-5-(1H-pyrazol-4-yl)-1H-benzo[d]imidazole]",< 10 µM,< 10 µM,< 10 µM,< 10 µM
"O=S(=O)(Cc1ccccc1)N1CCC(Cn2cnc3cc(-c4cn[nH]c4)ccc32)CC1 [Example 12, 1-((1-(benzylsulfonyl)piperidin-4-yl)methyl)-5-(1H-pyrazol-4-yl)-1H-benzo[d]imidazole]",< 10 µM,< 10 µM,< 10 µM,> 10 µM
O=C(CC1CCCCC1)N1CCC(Cn2cnc3cc(-c4cn[nH]c4)ccc32)CC1 [Example 10],< 10 µM,< 10 µM,< 10 µM,< 10 µM
"O=C(c1ccccc1)N1CCC(Cn2cnc3cc(-c4cn[nH]c4)ccc32)CC1 [Example 7, (4-((5-(1H-pyrazol-4-yl)-1H-benzo[d]imidazol-1-yl)methyl)piperidin-1-yl)(phenyl)methanone]",> 10 µM,< 10 µM,< 10 µM,< 10 µM

# Other lines, results leading:
IC50 (IL-17A),IC50 (IL-17F),IC50 (IL-22),IC50 (IL-21),Structure (SMILES)
> 10 µM,< 10 µM,< 10 µM,< 10 µM,O=C(Cc1ccccc1)N1CCC(Cn2cnc3cc(-c4cn[nH]c4)ccc32)CC1 [Example 8]
< 10 µM,< 10 µM,< 10 µM,< 10 µM,"O=C(CCc1ccccc1)N1CCC(Cn2cnc3cc(-c4cn[nH]c4)ccc32)CC1 [Example 9, 1-(4-((5-(1H-pyrazol-4-yl)-1H-benzo[d]imidazol-1-yl)methyl)piperidin-1-yl)-3-phenylpropan-1-one]"
